Experimental data from patent US20250312462A1, “PAK1 DEGRADERS AND METHODS OF USE THEREOF” (INSTITUTE FOR CANCER RESEARCH D/B/A THE RESEARCH INSTITUTE …, priority 2022, published 2025).

Assays:
Test in all cases: KINOMEscan
PKAC-alpha = PKAC-alpha (Homo sapiens, UniProt P17612); conditions: read-out: Percent Control
Procedure: (§1) The kinase engagement assay (KINOMEscan®) was performed by DiscoverX assessing binding abilities toward a set of kinases.

CSNK1A1 = CSNK1A1 (Homo sapiens, UniProt P48729); conditions: read-out: Percent Control
Procedure: as §1

BRAF = BRAF (Homo sapiens, UniProt P15056); conditions: read-out: Percent Control
Procedure: as §1

NDR2 = NDR2 (Homo sapiens, UniProt Q9Y2H1); conditions: read-out: Percent Control
Procedure: as §1

PRKD1 = PRKD1 (Homo sapiens, UniProt Q15139); conditions: read-out: Percent Control
Procedure: as §1

ULK1 = ULK1 (Homo sapiens, UniProt O75385); conditions: read-out: Percent Control
Procedure: as §1

LATS1 = LATS1 (Homo sapiens, UniProt O95835); conditions: read-out: Percent Control
Procedure: as §1

RET(V804L) = RET(V804L) (Homo sapiens, UniProt P07949, V804L); conditions: read-out: Percent Control
Procedure: as §1

[1] = molecular target: ABL1(F317L)-nonphosphorylated (Homo sapiens, UniProt P00519, F317L); conditions: read-out: Percent Control
Procedure: as §1

MEK5 = MEK5 (Homo sapiens, UniProt Q13163); conditions: read-out: Percent Control
Procedure: as §1

FGFR4 = FGFR4 (Homo sapiens, UniProt P22455); conditions: read-out: Percent Control
Procedure: as §1

EGFR(S752-1759del) = EGFR(S752-1759del) (Homo sapiens, UniProt P00533, DEL752-759); conditions: read-out: Percent Control
Sequence of EGFR(S752-1759del) (P00533 with tags, fused parts or gaps DEL752-759 limits assumed): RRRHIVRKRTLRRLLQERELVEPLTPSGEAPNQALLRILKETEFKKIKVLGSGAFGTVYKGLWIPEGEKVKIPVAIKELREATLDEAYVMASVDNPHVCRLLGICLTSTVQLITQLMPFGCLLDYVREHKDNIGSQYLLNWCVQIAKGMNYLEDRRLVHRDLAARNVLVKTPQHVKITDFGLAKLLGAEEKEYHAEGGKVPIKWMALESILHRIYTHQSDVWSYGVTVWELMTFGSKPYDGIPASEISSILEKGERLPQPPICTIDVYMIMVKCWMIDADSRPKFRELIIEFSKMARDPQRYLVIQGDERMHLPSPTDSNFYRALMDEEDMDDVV
Procedure: as §1

KIT-autoinhibited = KIT-autoinhibited (Homo sapiens, UniProt P10721); conditions: read-out: Percent Control
Sequence of KIT-autoinhibited (P10721 544-976 limits assumed): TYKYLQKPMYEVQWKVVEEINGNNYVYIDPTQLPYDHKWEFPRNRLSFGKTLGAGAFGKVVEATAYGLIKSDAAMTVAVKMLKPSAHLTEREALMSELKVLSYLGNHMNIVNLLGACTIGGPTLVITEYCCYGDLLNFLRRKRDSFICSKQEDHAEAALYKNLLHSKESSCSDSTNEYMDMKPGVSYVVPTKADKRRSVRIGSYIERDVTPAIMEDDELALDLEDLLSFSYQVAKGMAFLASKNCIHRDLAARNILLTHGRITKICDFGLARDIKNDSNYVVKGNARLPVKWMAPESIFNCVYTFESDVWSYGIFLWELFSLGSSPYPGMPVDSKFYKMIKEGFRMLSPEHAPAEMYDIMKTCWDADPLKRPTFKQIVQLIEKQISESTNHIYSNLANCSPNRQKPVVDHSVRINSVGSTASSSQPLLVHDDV
Procedure: as §1

HIPK3 = HIPK3 (Homo sapiens, UniProt Q9H422); conditions: read-out: Percent Control
Procedure: as §1

EPHA3 = EPHA3 (Homo sapiens, UniProt P29320); conditions: read-out: Percent Control
Procedure: as §1

EPHB2 = EPHB2 (Homo sapiens, UniProt P29323); conditions: read-out: Percent Control
Procedure: as §1

KIT(A829P) = KIT(A829P) (Homo sapiens, UniProt P10721, A829P); conditions: read-out: Percent Control
Procedure: as §1

FLT3(D835Y) = FLT3(D835Y) (Homo sapiens, UniProt P36888, D835Y); conditions: read-out: Percent Control
Procedure: as §1

ERBB2 = ERBB2 (Homo sapiens, UniProt P04626); conditions: read-out: Percent Control
Procedure: as §1

ERK4 = ERK4 (Homo sapiens, UniProt P31152); conditions: read-out: Percent Control
Sequence of ERK4 (P31152 whole entry): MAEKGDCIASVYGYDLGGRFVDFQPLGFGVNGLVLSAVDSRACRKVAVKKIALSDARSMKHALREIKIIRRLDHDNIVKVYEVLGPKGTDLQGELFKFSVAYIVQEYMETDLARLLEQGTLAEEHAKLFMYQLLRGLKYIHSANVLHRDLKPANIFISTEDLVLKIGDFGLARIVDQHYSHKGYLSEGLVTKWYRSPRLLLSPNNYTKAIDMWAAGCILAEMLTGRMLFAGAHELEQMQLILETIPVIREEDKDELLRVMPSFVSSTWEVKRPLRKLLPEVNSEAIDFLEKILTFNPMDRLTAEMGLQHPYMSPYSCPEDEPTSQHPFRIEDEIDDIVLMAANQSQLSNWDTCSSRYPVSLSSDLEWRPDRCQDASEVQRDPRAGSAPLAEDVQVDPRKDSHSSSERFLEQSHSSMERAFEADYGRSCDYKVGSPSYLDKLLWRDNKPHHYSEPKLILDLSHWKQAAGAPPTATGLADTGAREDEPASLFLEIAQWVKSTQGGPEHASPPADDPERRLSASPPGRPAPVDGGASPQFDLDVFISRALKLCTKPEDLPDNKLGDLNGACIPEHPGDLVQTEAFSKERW
Procedure: as §1

FLT3(D835H) = FLT3(D835H) (Homo sapiens, UniProt P36888, D835H); conditions: read-out: Percent Control
Procedure: as §1

ABL2 = ABL2 (Homo sapiens, UniProt P42684); conditions: read-out: Percent Control
Procedure: as §1

PRKCQ = PRKCQ (Homo sapiens, UniProt Q04759); conditions: read-out: Percent Control
Procedure: as §1

PDGFRA = PDGFRA (Homo sapiens, UniProt P16234); conditions: read-out: Percent Control
Procedure: as §1

RIOK1 = RIOK1 (Homo sapiens, UniProt Q9BRS2); conditions: read-out: Percent Control
Sequence of RIOK1 (Q9BRS2 whole entry): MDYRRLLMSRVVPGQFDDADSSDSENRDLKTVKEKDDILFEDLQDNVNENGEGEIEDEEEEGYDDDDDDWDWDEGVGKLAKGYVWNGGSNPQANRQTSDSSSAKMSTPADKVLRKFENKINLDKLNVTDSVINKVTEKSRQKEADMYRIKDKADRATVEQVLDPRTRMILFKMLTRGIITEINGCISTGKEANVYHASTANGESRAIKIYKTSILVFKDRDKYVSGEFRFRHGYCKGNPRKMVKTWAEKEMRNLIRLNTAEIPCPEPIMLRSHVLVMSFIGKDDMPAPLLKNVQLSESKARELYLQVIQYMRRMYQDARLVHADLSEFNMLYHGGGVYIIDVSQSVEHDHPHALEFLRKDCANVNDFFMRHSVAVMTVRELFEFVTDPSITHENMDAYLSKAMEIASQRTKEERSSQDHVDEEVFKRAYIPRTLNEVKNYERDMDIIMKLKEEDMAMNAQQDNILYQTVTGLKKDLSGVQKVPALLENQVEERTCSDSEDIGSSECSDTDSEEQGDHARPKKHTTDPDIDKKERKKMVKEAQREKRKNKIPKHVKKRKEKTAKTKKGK
Procedure: as §1

MEK3 = MEK3 (Homo sapiens, UniProt P46734); conditions: read-out: Percent Control
Procedure: as §1

WNK2 = WNK2 (Homo sapiens, UniProt Q9Y3S1); conditions: read-out: Percent Control
Procedure: as §1

FLT3(ITD, D835V) = conditions: 10 μM
Procedure: as §1

PDPK1 = PDPK1 (Homo sapiens, UniProt O15530); conditions: read-out: Percent Control
Sequence of PDPK1 (O15530 whole entry): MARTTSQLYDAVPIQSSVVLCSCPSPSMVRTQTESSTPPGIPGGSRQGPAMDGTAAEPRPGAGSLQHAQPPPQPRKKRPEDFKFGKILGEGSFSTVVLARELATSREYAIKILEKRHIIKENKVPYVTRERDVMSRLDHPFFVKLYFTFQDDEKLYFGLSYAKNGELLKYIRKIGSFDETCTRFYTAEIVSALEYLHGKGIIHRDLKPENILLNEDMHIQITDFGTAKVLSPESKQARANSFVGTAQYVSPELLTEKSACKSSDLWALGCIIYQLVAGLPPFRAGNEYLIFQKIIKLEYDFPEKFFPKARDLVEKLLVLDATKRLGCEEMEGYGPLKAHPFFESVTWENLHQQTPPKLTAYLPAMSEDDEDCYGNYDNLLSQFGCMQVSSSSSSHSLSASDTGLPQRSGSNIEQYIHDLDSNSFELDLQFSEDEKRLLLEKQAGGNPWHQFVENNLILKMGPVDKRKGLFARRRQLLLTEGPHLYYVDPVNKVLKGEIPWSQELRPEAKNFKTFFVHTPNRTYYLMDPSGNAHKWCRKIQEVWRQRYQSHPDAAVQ
Procedure: as §1

MAPKAPK5 = MAPKAPK5 (Homo sapiens, UniProt Q8IW41); conditions: read-out: Percent Control
Sequence of MAPKAPK5 (Q8IW41 whole entry): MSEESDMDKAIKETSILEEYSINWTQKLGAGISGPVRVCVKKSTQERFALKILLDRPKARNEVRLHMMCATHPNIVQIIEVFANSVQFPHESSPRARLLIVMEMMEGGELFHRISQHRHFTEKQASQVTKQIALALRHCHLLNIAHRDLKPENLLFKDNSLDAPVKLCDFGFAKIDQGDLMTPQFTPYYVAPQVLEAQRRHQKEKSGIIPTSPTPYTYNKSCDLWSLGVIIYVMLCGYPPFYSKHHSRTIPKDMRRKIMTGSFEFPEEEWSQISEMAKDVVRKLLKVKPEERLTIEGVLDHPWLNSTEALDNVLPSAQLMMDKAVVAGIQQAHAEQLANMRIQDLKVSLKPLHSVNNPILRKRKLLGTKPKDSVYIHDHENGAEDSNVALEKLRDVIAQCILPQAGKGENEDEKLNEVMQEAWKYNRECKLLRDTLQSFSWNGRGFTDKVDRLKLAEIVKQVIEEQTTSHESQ
Procedure: as §1

EPHA1 = EPHA1 (Homo sapiens, UniProt P21709); conditions: read-out: Percent Control
Procedure: as §1

BIKE = BIKE (Homo sapiens, UniProt Q9NSY1); conditions: read-out: Percent Control
Procedure: as §1

PIK3CA(E545K) = PIK3CA(E545K) (Homo sapiens, UniProt P42336, E545K); conditions: read-out: Percent Control
Sequence of PIK3CA(E545K) (P42336 whole entry E545K): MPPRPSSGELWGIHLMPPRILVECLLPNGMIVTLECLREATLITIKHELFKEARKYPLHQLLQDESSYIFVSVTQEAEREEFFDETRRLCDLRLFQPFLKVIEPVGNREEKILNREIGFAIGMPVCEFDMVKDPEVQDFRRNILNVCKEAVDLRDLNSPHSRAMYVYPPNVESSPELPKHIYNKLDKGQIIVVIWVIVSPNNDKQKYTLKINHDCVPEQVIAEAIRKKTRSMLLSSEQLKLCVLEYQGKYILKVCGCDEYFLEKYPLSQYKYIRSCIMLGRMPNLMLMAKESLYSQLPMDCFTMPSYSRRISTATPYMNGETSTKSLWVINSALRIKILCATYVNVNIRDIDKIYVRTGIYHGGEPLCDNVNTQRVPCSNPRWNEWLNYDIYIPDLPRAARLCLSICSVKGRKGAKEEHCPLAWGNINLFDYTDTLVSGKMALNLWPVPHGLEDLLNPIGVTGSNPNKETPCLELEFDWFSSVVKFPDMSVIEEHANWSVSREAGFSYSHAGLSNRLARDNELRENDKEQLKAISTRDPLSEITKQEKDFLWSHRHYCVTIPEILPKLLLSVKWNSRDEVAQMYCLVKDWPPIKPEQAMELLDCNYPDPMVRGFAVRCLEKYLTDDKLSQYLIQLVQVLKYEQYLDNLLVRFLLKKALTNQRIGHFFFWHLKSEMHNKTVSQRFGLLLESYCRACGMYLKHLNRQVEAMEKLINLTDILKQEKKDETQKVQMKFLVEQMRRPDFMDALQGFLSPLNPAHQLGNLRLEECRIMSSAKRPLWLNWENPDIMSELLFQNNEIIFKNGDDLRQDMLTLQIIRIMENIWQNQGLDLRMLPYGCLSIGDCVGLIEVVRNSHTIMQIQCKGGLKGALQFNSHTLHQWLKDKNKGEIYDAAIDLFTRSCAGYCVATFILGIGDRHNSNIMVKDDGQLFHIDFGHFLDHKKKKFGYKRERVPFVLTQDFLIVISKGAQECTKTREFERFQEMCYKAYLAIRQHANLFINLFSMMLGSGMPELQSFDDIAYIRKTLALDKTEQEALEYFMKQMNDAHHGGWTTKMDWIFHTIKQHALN
Procedure: as §1

TSSK3 = TSSK3 (Homo sapiens, UniProt Q96PN8); conditions: read-out: Percent Control
Procedure: as §1

S6K1 = S6K1 (Homo sapiens, UniProt P23443); conditions: read-out: Percent Control
Sequence of S6K1 (P23443 whole entry): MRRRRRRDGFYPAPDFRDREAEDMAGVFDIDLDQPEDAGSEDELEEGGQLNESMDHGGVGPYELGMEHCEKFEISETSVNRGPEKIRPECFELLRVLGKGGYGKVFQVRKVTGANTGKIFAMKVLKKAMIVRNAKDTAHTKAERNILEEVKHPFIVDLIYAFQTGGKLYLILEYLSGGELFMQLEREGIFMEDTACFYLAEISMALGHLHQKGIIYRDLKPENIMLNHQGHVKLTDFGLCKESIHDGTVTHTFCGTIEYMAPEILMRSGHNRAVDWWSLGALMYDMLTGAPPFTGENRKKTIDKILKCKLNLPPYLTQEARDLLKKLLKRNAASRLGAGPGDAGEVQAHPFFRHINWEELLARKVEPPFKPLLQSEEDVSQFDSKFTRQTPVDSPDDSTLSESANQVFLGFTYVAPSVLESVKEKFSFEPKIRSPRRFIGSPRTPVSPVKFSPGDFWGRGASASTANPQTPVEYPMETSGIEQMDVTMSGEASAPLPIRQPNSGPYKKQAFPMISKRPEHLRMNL
Procedure: as §1

Sequence of CSNK1A1 (P48729 whole entry): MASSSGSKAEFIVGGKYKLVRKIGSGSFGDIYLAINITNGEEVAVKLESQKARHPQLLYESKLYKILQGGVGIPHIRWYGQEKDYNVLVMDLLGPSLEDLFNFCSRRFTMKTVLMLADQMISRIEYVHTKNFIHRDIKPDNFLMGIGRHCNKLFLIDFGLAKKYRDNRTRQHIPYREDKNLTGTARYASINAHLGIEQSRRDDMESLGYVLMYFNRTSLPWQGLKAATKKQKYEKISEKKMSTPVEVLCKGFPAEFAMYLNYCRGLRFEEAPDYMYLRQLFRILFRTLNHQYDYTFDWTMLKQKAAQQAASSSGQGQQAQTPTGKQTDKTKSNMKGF

Q: With O=C1CCC(N2C(=O)c3cccc(NCCCCCCCCNC(=O)N4CC[C@H](NC5=Nc6cc(F)ccc6N(CC(F)F)c6ccc(Cl)cc65)C4)c3C2=O)C(=O)N1 (stereo partly drawn) [BJG-05-039, (3S)-3-((2-Chloro-5-(2,2-difluoroethyl)-8-fluoro-5H-dibenzo[b,e][1,4]diazepin-11-yl)amino)-N-(8-((2-(2,6-dioxopiperidin-3-yl)-1,3-dioxoisoindolin-4-yl)amino)octyl)pyrrolidine-1-carboxamide] as the compound, how does the remaining binding at 10 µM (PKAC-alpha) read?
A: 90%

Q: What about the remaining binding at 10 µM (CSNK1A1) of the same compound?
A: 93%

Q: What about the remaining binding at 10 µM (BRAF) of the same compound?
A: 98%

Q: And the remaining binding at 10 µM (NDR2)?
A: 45%

Q: And the remaining binding at 10 µM (PRKD1)?
A: 81%

Q: What about the remaining binding at 10 µM (ULK1) of the same compound?
A: 78%

Q: And the remaining binding at 10 µM (LATS1)?
A: 100%

Q: And the remaining binding at 10 µM (RET(V804L))?
A: 99%

Q: What about the remaining binding at 10 µM [1] of the same compound?
A: 77%

Q: What about the remaining binding at 10 µM (MEK5) of the same compound?
A: 100%

Q: What about the remaining binding at 10 µM (FGFR4) of the same compound?
A: 68%

Q: And the remaining binding at 10 µM (EGFR(S752-1759del))?
A: 67%

Q: What about the remaining binding at 10 µM (KIT-autoinhibited) of the same compound?
A: 100%

Q: And the remaining binding at 10 µM (HIPK3)?
A: 100%

Q: What about the remaining binding at 10 µM (EPHA3) of the same compound?
A: 47%

Q: What about the remaining binding at 10 µM (EPHB2) of the same compound?
A: 74%

Q: And the remaining binding at 10 µM (KIT(A829P))?
A: 92%

Q: What about the remaining binding at 10 µM (FLT3(D835Y)) of the same compound?
A: 63%

Q: What about the remaining binding at 10 µM (ERBB2) of the same compound?
A: 100%

Q: What about the remaining binding at 10 µM (ERK4) of the same compound?
A: 52%

Q: And the remaining binding at 10 µM (FLT3(D835H))?
A: 83%

Q: And the remaining binding at 10 µM (ABL2)?
A: 94%

Q: What about the remaining binding at 10 µM (PRKCQ) of the same compound?
A: 77%

Q: And the remaining binding at 10 µM (PDGFRA)?
A: 100%

Q: And the remaining binding at 10 µM (RIOK1)?
A: 84%

Q: What about the remaining binding at 10 µM (MEK3) of the same compound?
A: 94%

Q: What about the remaining binding at 10 µM (WNK2) of the same compound?
A: 89%

Q: What about the “Percent Control” value (FLT3(ITD, D835V)) of the same compound?
A: 95

Q: What about the remaining binding at 10 µM (PDPK1) of the same compound?
A: 86%

Q: And the remaining binding at 10 µM (MAPKAPK5)?
A: 100%

Q: And the remaining binding at 10 µM (EPHA1)?
A: 98%

Q: And the remaining binding at 10 µM (BIKE)?
A: 74%

Q: What about the remaining binding at 10 µM (PIK3CA(E545K)) of the same compound?
A: 100%

Q: What about the remaining binding at 10 µM (TSSK3) of the same compound?
A: 100%

Q: And the remaining binding at 10 µM (S6K1)?
A: 89%
